Reference: ChEMBL document CHEMBL5257106, “Design, synthesis, and biological evaluation of novel HDAC inhibitors with a 3-(benzazol-2-yl)quinoxaline framework” (Bioorg Med Chem Lett, 2023)

Experiments:
MCF7 = experiment: Antiproliferative activity against human MCF7 cells assessed as inhibition of cell growth by MTT assay; assay type: functional, cell-based
PANC-1 = experiment: Antiproliferative activity against human PANC-1 cells assessed as inhibition of cell growth by MTT assay; assay type: functional, cell-based
[1] = Cytotoxicity against HUVEC cells assessed as inhibition of cell growth by MTT assay; details: human
A2780 = experiment: Antiproliferative activity against human A2780 cells assessed as inhibition of cell growth by MTT assay; assay type: functional, cell-based
HCT-116 [2] = experiment: Antiproliferative activity against human HCT-116 cells assessed as inhibition of cell growth by MTT assay; assay type: functional, cell-based
HL-60 = experiment: Antiproliferative activity against human HL-60 cells assessed as inhibition of cell growth by MTT assay; assay type: functional, cell-based
K562 = experiment: Antiproliferative activity against human K562 cells assessed as inhibition of cell growth by MTT assay; assay type: functional, cell-based
RS4-11 = experiment: Antiproliferative activity against human RS4-11 cells assessed as inhibition of cell growth by MTT assay; assay type: functional, cell-based
HCT-116 [3] = experiment: Induction of cell cycle arrest in human HCT-116 assessed as increase in G2/M phase cells at 1 uM incubated for 48 hrs by flow cytometric analysis (reference value: 23.70%); assay type: functional
HCT-116 [4] = experiment: Induction of cell cycle arrest in human HCT-116 assessed as S phase cells at 1 uM incubated for 48 hrs by flow cytometric analysis (reference value: 12.79%); assay type: functional
HCT-116 [5] = experiment: Induction of apoptosis in human HCT-116 cells assessed as late apoptotic cells at 1 uM incubated for 24 hrs by Annexin V-FITC/PI staining based flow cytometry analysis (reference value: 0.323%); assay type: functional
HCT-116 [6] = experiment: Induction of apoptosis in human HCT-116 cells assessed as total apoptotic cells at 1 uM incubated for 24 hrs by Annexin V-FITC/PI staining based flow cytometry analysis (reference value: 6.823%); assay type: functional
HCT-116 [7] = experiment: Induction of apoptosis in human HCT-116 cells assessed as early apoptotic cells at 1 uM incubated for 24 hrs by Annexin V-FITC/PI staining based flow cytometry analysis (reference value: 6.50%); assay type: functional
HCT-116 [8] = experiment: Induction of apoptosis in human HCT-116 cells assessed as viable cells at 1 uM incubated for 24 hrs by Annexin V-FITC/PI staining based flow cytometry analysis (reference value: 93.2%); assay type: functional
HCT-116 [9] = experiment: Induction of apoptosis in human HCT-116 cells assessed as necrotic cells at 1 uM incubated for 24 hrs by Annexin V-FITC/PI staining based flow cytometry analysis (reference value: 0.00%); assay type: functional
HCT-116 [10] = experiment: Induction of cell cycle arrest in human HCT-116 assessed as decrease in G0/G1 phase cells at 1 uM incubated for 48 hrs by flow cytometric analysis (reference value: 63.51%); assay type: functional; set-up: scale not given: the % may be the effect or the level left

| IC50 (MCF7) | IC50 (PANC-1) | IC50 (A2780) | IC50 (HCT-116 [2]) | IC50 (HL-60) | IC50 (K562) | IC50 (RS4-11) | SMILES | IC50 [1] | Activity (HCT-116 [3]) | Activity (HCT-116 [4]) | Activity (HCT-116 [5]) | Activity (HCT-116 [6]) | Activity (HCT-116 [7]) | Activity (HCT-116 [8]) | Activity (HCT-116 [9]) | Activity (HCT-116 [10]) |
| --- | --- | --- | --- | --- | --- | --- | --- | --- | --- | --- | --- | --- | --- | --- | --- | --- |
| 9.36 µM | 11.2 µM | 12.6 µM | 9.94 µM |  |  |  | Nc1ccccc1NC(=O)CCCCCNc1nc2ccccc2nc1-c1nc2ccccc2o1 | 15.3 µM |  |  |  |  |  |  |  |  |
| 12.5 µM | 10.5 µM | 7.13 µM | 9.08 µM |  |  |  | Nc1ccccc1NC(=O)CCCCCCCNc1nc2ccccc2nc1-c1nc2ccccc2o1 | 21.5 µM |  |  |  |  |  |  |  |  |
| 3.69 µM | 1.92 µM | 4.07 µM | 2.44 µM |  |  |  | O=C(CCCCCNc1nc2ccccc2nc1-c1nc2ccccc2o1)NO | 16.4 µM |  |  |  |  |  |  |  |  |
| 33.5 µM | 21.6 µM | 23.9 µM | 17.2 µM |  |  |  | Nc1ccccc1NC(=O)CCCNc1nc2ccccc2nc1-c1nc2ccccc2o1 | 27.2 µM |  |  |  |  |  |  |  |  |
| 4.98 µM | 3.68 µM | 6.29 µM | 4.59 µM |  |  |  | O=C(CCCNc1nc2ccccc2nc1-c1nc2ccccc2o1)NO | 24 µM |  |  |  |  |  |  |  |  |
| 1.52 µM | 2.87 µM | 3.27 µM | 3.04 µM | 0.89 µM | 0.89 µM | 0.89 µM | O=C(CCCCCCCNc1nc2ccccc2nc1-c1nc2ccccc2o1)NO | 17.4 µM |  |  |  |  |  |  |  |  |
|  |  |  |  |  |  |  | O=C(CCCCCCC(=O)Nc1ccccc1)NO [VORINOSTAT] |  | 30.87% | 11.02% | 6.59% | 41.49% | 34.9% | 58.4% | 0.146% | 58.11% |
| 7.33 µM | 11 µM | 17.9 µM | 6.51 µM |  |  |  | Nc1ccccc1NC(=O)CCCCCCNc1nc2ccccc2nc1-c1nc2ccccc2o1 | 16.7 µM |  |  |  |  |  |  |  |  |
